Results from ChEMBL document CHEMBL1201862, “PubChem BioAssay data set” (2004).
Active and inactive are the calls of the source.

Tests used:
[1] = target: T1, Apoptotic protease-activating factor 1 (Homo sapiens, UniProt O14727); format: functional
T1 sequence (O14727 whole entry): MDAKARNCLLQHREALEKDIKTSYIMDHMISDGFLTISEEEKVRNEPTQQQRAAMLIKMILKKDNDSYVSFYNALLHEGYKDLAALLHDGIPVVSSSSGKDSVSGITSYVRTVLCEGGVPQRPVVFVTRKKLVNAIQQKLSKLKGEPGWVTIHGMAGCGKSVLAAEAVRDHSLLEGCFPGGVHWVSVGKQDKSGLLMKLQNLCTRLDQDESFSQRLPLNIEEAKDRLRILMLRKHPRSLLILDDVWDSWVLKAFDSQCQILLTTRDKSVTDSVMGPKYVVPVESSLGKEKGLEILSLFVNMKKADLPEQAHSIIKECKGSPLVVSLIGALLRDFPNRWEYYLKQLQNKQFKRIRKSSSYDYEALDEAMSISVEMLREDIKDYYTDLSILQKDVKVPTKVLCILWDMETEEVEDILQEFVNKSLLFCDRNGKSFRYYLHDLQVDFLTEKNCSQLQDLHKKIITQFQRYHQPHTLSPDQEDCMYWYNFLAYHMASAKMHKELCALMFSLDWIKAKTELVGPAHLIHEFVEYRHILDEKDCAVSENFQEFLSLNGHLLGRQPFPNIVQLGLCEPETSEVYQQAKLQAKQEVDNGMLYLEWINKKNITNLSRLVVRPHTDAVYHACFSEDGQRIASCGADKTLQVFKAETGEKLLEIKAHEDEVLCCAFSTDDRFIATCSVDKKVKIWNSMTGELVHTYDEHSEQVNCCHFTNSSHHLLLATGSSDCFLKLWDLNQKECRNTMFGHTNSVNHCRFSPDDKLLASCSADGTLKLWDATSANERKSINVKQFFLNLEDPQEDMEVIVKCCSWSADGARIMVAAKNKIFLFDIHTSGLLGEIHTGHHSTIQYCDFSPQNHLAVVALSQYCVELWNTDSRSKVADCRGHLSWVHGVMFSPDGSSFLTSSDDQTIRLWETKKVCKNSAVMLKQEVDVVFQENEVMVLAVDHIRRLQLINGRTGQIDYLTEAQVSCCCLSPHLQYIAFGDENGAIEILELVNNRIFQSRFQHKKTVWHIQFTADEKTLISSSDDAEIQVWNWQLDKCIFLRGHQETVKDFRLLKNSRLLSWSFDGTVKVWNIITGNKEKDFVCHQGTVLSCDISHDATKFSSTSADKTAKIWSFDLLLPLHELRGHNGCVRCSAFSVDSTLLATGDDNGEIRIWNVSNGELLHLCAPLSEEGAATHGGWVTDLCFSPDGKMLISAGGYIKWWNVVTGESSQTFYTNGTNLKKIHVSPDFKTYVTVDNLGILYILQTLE

[2] = HEK-293T cell viability reduction – luminescence, B-cell screen hits, cytotoxicity control for BCR NF-kB inhibitor project, dose response (AID 489021); format: functional, cell-based;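 also: HEK-293T cells carrying an NF-kB luciferase reporter; cells exposed to compound for about 14 hours before viability readout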
Caspase-3 = target: T2, Caspase-3 (Homo sapiens, UniProt P42574); format: functional;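 also: Dose-response selectivity test against caspase-3 for candidate inhibitors of sentrin-specific proteases (SENPs)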
T2 sequence (P42574 whole entry): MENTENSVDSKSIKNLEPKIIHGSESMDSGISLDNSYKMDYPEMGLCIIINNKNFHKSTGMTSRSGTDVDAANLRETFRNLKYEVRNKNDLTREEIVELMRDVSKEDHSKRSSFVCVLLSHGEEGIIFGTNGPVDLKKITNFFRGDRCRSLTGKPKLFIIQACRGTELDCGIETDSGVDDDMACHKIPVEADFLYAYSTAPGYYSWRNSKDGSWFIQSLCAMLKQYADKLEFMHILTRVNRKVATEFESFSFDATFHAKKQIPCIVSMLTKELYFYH

[3] = target: T3, Histone-lysine N-methyltransferase NSD2 (Homo sapiens, UniProt O96028); format: biochemical
T3 sequence (O96028 whole entry): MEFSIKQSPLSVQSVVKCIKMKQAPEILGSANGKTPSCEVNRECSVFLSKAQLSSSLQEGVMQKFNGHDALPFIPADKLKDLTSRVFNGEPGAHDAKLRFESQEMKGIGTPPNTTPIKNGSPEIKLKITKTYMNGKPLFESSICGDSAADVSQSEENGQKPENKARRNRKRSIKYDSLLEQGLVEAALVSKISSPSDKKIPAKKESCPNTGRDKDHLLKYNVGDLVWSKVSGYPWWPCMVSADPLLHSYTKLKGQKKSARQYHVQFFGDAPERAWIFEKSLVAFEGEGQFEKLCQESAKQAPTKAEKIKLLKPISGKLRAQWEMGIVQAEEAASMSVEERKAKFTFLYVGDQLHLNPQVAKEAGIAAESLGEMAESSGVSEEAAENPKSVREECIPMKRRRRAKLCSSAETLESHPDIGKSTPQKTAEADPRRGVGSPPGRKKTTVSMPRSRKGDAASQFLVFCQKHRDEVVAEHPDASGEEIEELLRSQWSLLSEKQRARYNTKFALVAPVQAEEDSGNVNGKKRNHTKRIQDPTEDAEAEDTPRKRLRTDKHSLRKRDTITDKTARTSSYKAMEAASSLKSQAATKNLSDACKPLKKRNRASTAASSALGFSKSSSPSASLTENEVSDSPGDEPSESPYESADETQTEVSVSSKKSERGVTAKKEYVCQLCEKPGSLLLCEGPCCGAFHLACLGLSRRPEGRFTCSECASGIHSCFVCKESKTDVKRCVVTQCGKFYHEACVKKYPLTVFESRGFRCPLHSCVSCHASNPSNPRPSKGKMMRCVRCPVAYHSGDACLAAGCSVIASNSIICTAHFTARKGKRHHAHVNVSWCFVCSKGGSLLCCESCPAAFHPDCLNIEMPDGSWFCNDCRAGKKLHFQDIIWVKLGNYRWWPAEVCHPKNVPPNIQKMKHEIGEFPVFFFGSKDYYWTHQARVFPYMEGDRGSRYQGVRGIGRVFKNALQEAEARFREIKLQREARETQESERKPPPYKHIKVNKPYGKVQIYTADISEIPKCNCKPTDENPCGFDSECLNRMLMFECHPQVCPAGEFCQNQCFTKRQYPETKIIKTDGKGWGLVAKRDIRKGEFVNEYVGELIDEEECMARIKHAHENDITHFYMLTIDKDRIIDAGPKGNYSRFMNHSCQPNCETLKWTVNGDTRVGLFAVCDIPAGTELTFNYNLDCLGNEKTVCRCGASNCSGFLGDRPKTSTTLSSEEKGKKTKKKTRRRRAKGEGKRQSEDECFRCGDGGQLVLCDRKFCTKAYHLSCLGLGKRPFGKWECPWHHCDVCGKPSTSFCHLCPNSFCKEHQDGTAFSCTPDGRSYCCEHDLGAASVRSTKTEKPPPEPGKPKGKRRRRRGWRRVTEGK

Nonstructural protein 1 = Nonstructural protein 1 (Influenza A virus, UniProt Q194T2); format: functional, Influenza A virus (A/California/07/2009(H1N1))
Chain of Nonstructural protein 1 (Q194T2 whole entry): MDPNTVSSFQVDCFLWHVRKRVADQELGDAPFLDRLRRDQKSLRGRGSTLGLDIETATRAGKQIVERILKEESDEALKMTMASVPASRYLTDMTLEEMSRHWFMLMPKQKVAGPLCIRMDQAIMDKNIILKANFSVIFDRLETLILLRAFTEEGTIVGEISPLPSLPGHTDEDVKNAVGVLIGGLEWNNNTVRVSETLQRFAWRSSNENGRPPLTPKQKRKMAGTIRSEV

SMILES | IC50 [1] | IC50 [2] | IC50 (Caspase-3) | AC50 [3] | IC50 (Nonstructural protein 1)
CCC(=O)N(C1=C(NC)C(=O)c2ccccc2C1=O)C(C)C | 20.8 µM (active) | > 80 µM (inactive) | 6.86 µM (active) |  | 
CC1CC(C)CN(C(=O)c2ccc3c(c2NCCO)C(=O)c2ccccc2C3=O)C1 (stereo not given) |  |  |  | 19.3 µM (active) | 13 µM (active)
